This passage reports EC50 results from patent US10059667B2, “Antidiabetic compounds” (MERCK SHARP & DOHME CORP., priority 2014, dated 2018).

In this experiment the target is Human GPR40 (Homo sapiens (Human), UniProt O14842). Description: Inositol Phosphate Turnover (IP1) Assay 1, HEK cells stably expressing human GPR40, 3H-inositol SPA. The experiment is classed as cell-based. The note with it: HEK cells stably expressing human GPR40, 96-well. As to the method: Human and mouse GPR40 stable cell-lines were generated in CHO cells stably expressing NFAT BLA (Beta-lactamase). A human GPR40 stable cell-line was generated in HEK cells stably expressing the aequorin expressing reporter. The expression plasmids were transfected using lipofectamine (Life Technologies) following manufacturer's instructions. Stable cell-lines were generated following drug selection.
Human GPR40, sequence (O14842 whole entry): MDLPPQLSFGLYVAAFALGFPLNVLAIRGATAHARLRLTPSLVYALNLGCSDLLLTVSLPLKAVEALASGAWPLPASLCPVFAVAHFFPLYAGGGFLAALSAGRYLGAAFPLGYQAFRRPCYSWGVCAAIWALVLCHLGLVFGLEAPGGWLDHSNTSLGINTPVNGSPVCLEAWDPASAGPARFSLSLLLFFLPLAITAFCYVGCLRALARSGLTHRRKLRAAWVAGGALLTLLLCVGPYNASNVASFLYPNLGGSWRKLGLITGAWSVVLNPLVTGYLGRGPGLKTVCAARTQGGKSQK
The assay was performed in 96-well format. HEK cells stably expressing human GPR40 were plated to be 60-80% confluent within 72 h. After 72 h, the plates were aspirated and the cells washed with inositol-free DMEM (ICN). The wash media was replaced with 150 μL of 3H-inositol labeling media (inositol-free media containing 0.4% human albumin or 0.4% mouse albumin, 1× pen/strep antibiotics, glutamine, 25 mM HEPES to which was added 3H-myo-inositol NEN #NET114A 1 mCi/mL, 25 Ci/mmol diluted 1:150 in loading media with a final specific radioactivity of 1 μCi/150 μL). Alternatively, the human and mouse albumin can be added after the overnight labeling step before the addition of LiCl.
The assay was typically run the next day after 18 h labeling. On the day of the assay, 5 μL of 300 mM LiCl was added to all wells and incubated at 37 degrees for 20 min. 0.75 μL of each compound was added and incubated with the cells for 60 min at 37 degrees. The media was then aspirated off and the assay terminated with the addition of 60 μL 10 mM formic acid. The cells were lysed for 60 min at room temperature. 15-30 μL of lysate was mixed with 70 μL/1 mg YSi SPA beads (Amersham) in clear bottom Isoplates. The plates were shaken for 2 h at room temperature. Beads were allowed to settle and the plates were counted in the Wallac Microbeta.
For the compound `COc1cccc(OC2CC(COc3cccc([C@H](C4CC4)[C@H](C)C(=O)O)c3)C2)c1` (single isomer, unassigned) [Example 65], the midpoint of the response, the EC50, lay at 22 nM.

For the compound `COc1cccc(OC2CC(COc3cccc([C@H](C4CC4)[C@H](C)C(=O)O)c3)C2)c1` (single isomer, unassigned) [Example 66], a half-maximal effect (EC50) was put at 119 nM.

As for `COc1ccc(F)c(OC2CC(COc3cccc([C@H](C4CC4)[C@H](C)C(=O)O)c3)C2)c1` (single isomer, unassigned) [Example 80], the 50% effective concentration (EC50) (in general, the concentration needed to bring the measured effect to its halfway point) came to 12 nM.

In turn, `COc1cccc(C2CC2COc2cccc([C@H](C3CC3)[C@H](C)C(=O)O)c2)c1` (single isomer, unassigned) [Example 83] showed a concentration for a half-maximal effect (EC50) of 94 nM. Compared with the last compound, the EC50 is about 7.8-fold higher.

The compound `COc1cc(C2CC(COc3cccc([C@H](C4CC4)[C@H](C)C(=O)O)c3)C2)ccn1` (single isomer, unassigned) [Example 88] registered a concentration for a half-maximal effect (EC50) of 930 nM.

`COc1cc(C2CC(COc3cccc([C@H](C4CC4)[C@H](C)C(=O)O)c3)C2)ccn1` (single isomer, unassigned) [Example 89] displayed a half-maximal effective concentration (EC50) of 61 nM.

With `C[C@H](C(=O)O)[C@H](c1cccc(OCC2CC(Oc3ccn[nH]3)C2)c1)C1CC1` (single isomer, unassigned) [Example 98], the concentration giving a half-maximal response (EC50) was 1480 nM.

Compound `C[C@H](C(=O)O)[C@H](c1cccc(OCC2CC(Oc3ccn[nH]3)C2)c1)C1CC1` (single isomer, unassigned) [Example 99] displayed an EC50 of 2670 nM.

Take `COc1ccnc(OC2CC(COc3cccc([C@H](C4CC4)[C@H](C)C(=O)O)c3)C2)c1` (single isomer, unassigned) [Example 104]: it took 564 nM to reach a half-maximal effect (EC50).

Consider `COc1ccnc(OC2CC(COc3cccc([C@H](C4CC4)[C@H](C)C(=O)O)c3)C2)c1` (single isomer, unassigned) [Example 105], for which the EC50 turned out to be 56 nM.

Compound `C[C@H](C(=O)O)[C@H](c1cccc(OCC2CC(Oc3ccc4c(c3)COC4=O)C2)c1)C1CC1` (single isomer, unassigned) [Example 107] registered a concentration for a half-maximal effect (EC50) of 3450 nM. Compared with the last compound, the EC50 is about 62-fold higher.

In the case of `C[C@H](C(=O)O)[C@H](c1cccc(OCC2CC(Oc3ccc4c(c3)COC4=O)C2)c1)C1CC1` (single isomer, unassigned) [Example 108], the EC50 was 1970 nM.

`COc1ccc(C)cc1OC1CC(COc2cccc([C@H](C3CC3)[C@H](C)C(=O)O)c2)C1` (single isomer, unassigned) [Example 116] yielded a 50% effective concentration (EC50) of 77 nM.

As to `COc1ccc(C)cc1OC1CC(COc2cccc([C@H](C3CC3)[C@H](C)C(=O)O)c2)C1` (single isomer, unassigned) [Example 117], the EC50 came to 50 nM. This EC50 lies about 1.5-fold lower than the previous one.

`Cc1ccc(F)c(OC2CC(COc3cccc([C@H](C4CC4)[C@H](C)C(=O)O)c3)C2)c1` (single isomer, unassigned) [Example 118] yielded an EC50 of 156 nM. This EC50 is about 3.1-fold higher than that of the compound before.

In turn, `Cc1ccc(F)c(OC2CC(COc3cccc([C@H](C4CC4)[C@H](C)C(=O)O)c3)C2)c1` (single isomer, unassigned) [Example 119] had a concentration for a half-maximal effect (EC50) of 98 nM.

`C[C@H](C(=O)O)[C@H](c1cccc(OCC2CC(Oc3cccc(-c4ccccc4)c3)C2)c1)C1CC1` (single isomer, unassigned) [Example 120] displayed a 50% effective concentration (EC50) of 975 nM.

Compound `C[C@H](C(=O)O)[C@H](c1cccc(OCC2CC(Oc3cccc(-c4ccccc4)c3)C2)c1)C1CC1` (single isomer, unassigned) [Example 121] came in with a concentration for a half-maximal effect (EC50) of 561 nM.

As for `C[C@H](C(=O)O)[C@H](c1cccc(OCC2CC(Oc3cccc(O)c3)C2)c1)C1CC1` (single isomer, unassigned) [Example 122], the 50% effective concentration (EC50) was determined as 597 nM.

In turn, `C[C@H](C(=O)O)[C@H](c1cccc(OCC2CC(Oc3cccc(O)c3)C2)c1)C1CC1` (single isomer, unassigned) [Example 123] registered a 50% effective concentration (EC50) of 324 nM.

In turn, `CC(C)Oc1ccccc1OC1CC(COc2cccc([C@H](C3CC3)[C@H](C)C(=O)O)c2)C1` (single isomer, unassigned) [Example 126] had a concentration giving a half-maximal response (EC50) of 147 nM.

Compound `CC(C)Oc1ccccc1OC1CC(COc2cccc([C@H](C3CC3)[C@H](C)C(=O)O)c2)C1` (single isomer, unassigned) [Example 127] returned a concentration for a half-maximal effect (EC50) of 182 nM. This EC50 and that of the compound before are within 1.5-fold of each other.

On to `COc1cccc(F)c1OC1CC(COc2cccc([C@H](C3CC3)[C@H](C)C(=O)O)c2)C1` (single isomer, unassigned) [Example 129], for which the EC50 turned out to be 109 nM.

`COc1cccc(F)c1OC1CC(COc2cccc([C@H](C3CC3)[C@H](C)C(=O)O)c2)C1` (single isomer, unassigned) [Example 130]: it took 139 nM to reach a half-maximal effect (EC50).

Compound `C[C@H](C(=O)O)[C@H](c1cccc(OCC2CC(Oc3ccccc3Cl)C2)c1)C1CC1` (single isomer, unassigned) [Example 133] yielded an EC50 of 152 nM.

`C[C@H](C(=O)O)[C@H](c1cccc(OCC2CC(Oc3ccccc3Cl)C2)c1)C1CC1` (single isomer, unassigned) [Example 134] displayed an EC50 of 85 nM. This EC50 lies about 1.8-fold lower than the previous one.

`CC(c1cc(C(F)(F)F)ccc1C(F)(F)F)N1CCC(COc2cccc([C@H](C3CC3)[C@H](C)C(=O)O)c2)CC1` (stereo partly drawn) [Example 35] registered an EC50 of 20 nM.

As for `CCC(c1cc(C(F)(F)F)ccc1C(F)(F)F)N1CC(COc2cccc([C@H](C3CC3)[C@H](C)C(=O)O)c2)C1` (stereo partly drawn) [Example 36], the EC50 turned out to be 12 nM.

The compound `C[C@H](C(=O)O)[C@H](c1cccc(OCC2CCN(c3cccc(C(F)(F)F)n3)CC2)c1)C1CC1` [Example 37] registered a concentration for a half-maximal effect (EC50) of 177 nM. Compared with the last compound, the EC50 is about 15-fold higher.

The compound `C[C@H](C(=O)O)[C@H](c1cccc(OCC2CCN(c3ncccc3C(F)(F)F)CC2)c1)C1CC1` [Example 38] had a concentration for a half-maximal effect (EC50) of 13 nM.

Turning to `C[C@H](C(=O)O)[C@H](c1cccc(OCC2CCN(c3cc(C(F)(F)F)ccn3)CC2)c1)C1CC1` [Example 39], the half-maximal effective concentration (EC50) amounted to 218 nM.

Turning to `C[C@H](C(=O)O)[C@H](c1cccc(OCC2CCN([C@H](C)c3cc(C(F)(F)F)ccc3C(F)(F)F)C2)c1)C1CC1` (stereo partly drawn) [Example 40], the 50% effective concentration (EC50) is 25 nM.

Turning to `C[C@H](C(=O)O)[C@H](c1cccc(OCC2CCN([C@@H](C)c3cc(C(F)(F)F)ccc3C(F)(F)F)C2)c1)C1CC1` (stereo partly drawn) [Example 41], the half-maximal effective concentration (EC50) is 23 nM.

`COc1cccc(OC2CC(COc3cccc([C@H](C4CC4)[C@H](C)C(=O)O)c3)C2)c1` (stereo partly drawn) [Example 64, (2S,3R)-3-Cyclopropyl-3-(3-((3-(3-methoxyphenoxy)cyclobutyl)methoxy)phenyl)-2-methylpropanoic acid] showed an EC50 of 60 nM.

Take `C[C@H](C(=O)O)[C@H](c1cccc(OCC2CC2Cc2ccccc2)c1)C1CC1` (stereo partly drawn) [Example 67]: the concentration giving a half-maximal response (EC50) turned out to be 408 nM.

In turn, `C[C@H](C(=O)O)[C@H](c1cccc(OCC2CC2c2ccccc2)c1)C1CC1` (stereo partly drawn) [Example 68] registered an EC50 of 304 nM. This EC50 and that of the compound before are within 1.5-fold of each other.

On to `COc1cccc(C2CC2COc2cccc([C@H](C3CC3)[C@H](C)C(=O)O)c2)c1` (stereo partly drawn) [Example 69], for which the EC50 came out at 166 nM. Against the preceding compound, the EC50 is about 1.8-fold lower.

With `COc1cccc(C[C@H]2C[C@@H]2COc2cccc([C@H](C3CC3)[C@H](C)C(=O)O)c2)c1` [Example 70], it took 146 nM to reach a half-maximal effect (EC50).

In the case of `COc1cccc(C[C@@H]2C[C@H]2COc2cccc([C@H](C3CC3)[C@H](C)C(=O)O)c2)c1` [Example 71], the EC50 stood at 187 nM.

Take `C[C@H](C(=O)O)[C@H](c1cccc(OCC2CC(c3ccccc3)C2)c1)C1CC1` (stereo partly drawn) [Example 72]: a half-maximal response (EC50) required 201 nM. The EC50 values of the last two compounds are within 1.5-fold of each other.

Turning to `COc1ccc(F)c(OC2CC(COc3cccc([C@H](C4CC4)[C@H](C)C(=O)O)c3)C2)c1` (stereo partly drawn) [Example 73], a half-maximal response (EC50) required 43 nM. This EC50 lies about 4.7-fold lower than the previous one.

As for `COc1ccc(F)c([C@H]2C[C@@H]2COc2cccc([C@H](C3CC3)[C@H](C)C(=O)O)c2)c1` [Example 74], the concentration for a half-maximal effect (EC50) amounted to 56 nM.

`COc1ccc(F)c([C@@H]2C[C@H]2COc2cccc([C@H](C3CC3)[C@H](C)C(=O)O)c2)c1` [Example 75] yielded a concentration for a half-maximal effect (EC50) of 34 nM.

Take `COc1cc([C@@H]2C[C@H]2COc2cccc([C@H](C3CC3)[C@H](C)C(=O)O)c2)c(F)cn1` [Example 76]: the response was half-maximal at 138 nM (EC50).

Compound `COc1cccc(C2=CCC(COc3cccc([C@H](C4CC4)[C@H](C)C(=O)O)c3)C2)c1` (stereo partly drawn) [Example 78, (2 S,3R)-3-cyclopropyl-3-(3-((3-(3-methoxyphenyl)cyclopent-3-en-1 yl)methoxy)phenyl)-2-methylpropanoic acid] came in with a concentration giving a half-maximal response (EC50) of 75 nM.

`COc1cccc([C@H]2CC[C@@H](COc3cccc([C@H](C4CC4)[C@H](C)C(=O)O)c3)C2)c1` [Example 79, (2S,3R)-3-cyclopropyl-3-(3-(((1R,3 S)-3-(3-methoxyphenyl)cyclopentyl)methoxy)phenyl)-2-methylpropanoic acid] gave an EC50 of 118 nM.

With `COc1ccc(F)c(OC2CC(COc3cccc([C@H](C4CC4)[C@H](C)C(=O)O)c3)C2)c1` (stereo partly drawn) [Example 81, (2S,3R)-3-cyclopropyl-3-(3-((3-(2-fluoro-5-methoxyphenoxy)cyclobutyl)methoxy)phenyl)-2-methylpropanoic acid], a half-maximal response (EC50) required 45 nM.

`COc1cccc(C2CC2COc2cccc([C@H](C3CC3)[C@H](C)C(=O)O)c2)c1` (stereo partly drawn) [Example 82, (2S,3R)-3-cyclopropyl-3-(3-((2-(3-methoxyphenyl)cyclopropyl)methoxy)phenyl)-2-methylpropanoic acid] displayed an EC50 of 172 nM.
